According to patent US8697390B2, “Method and kit for examination of cells using N-(9-acridinyl) maleimide (NAM) or using 7-diethylamino-3-((4′-iodacetyl)amino)phenyl)-4-methylkcoumarin (CPI)” (ChemoMetec A/S, priority 2008, dated 2014):

Columns and labels:
[1] = test system: Jurkat (JM) cells; assay: CPI/PI staining as marker of cell viability in proliferating Jurkat cells; type: cell-based; conditions: 98% viable, 10 μL CPI (100 μg/mL DMSO) in 90 μL cells
Procedure: (§1) Jurkat (JM) cells were grown at 37° C. in a humidified air atmosphere with 5% CO2 in RPMI (Invitrogen, #61870) supplemented with 10% heat-inactivated fetal bovine serum (Invitrogen, #10108-165). 90 μL proliferating Jurkat cells (cell density 1.1×10^6, 98% viable determined using the NC-100 NucleoCounter system following the manufacturer's (ChemoMetec) protocol) were added 10 μL CPI (7-diethylamino-3-((4′-(iodoacetyl)amino)phenyl)-4-methylcoumarin, Sigma 78264 CAS no. 76877-34-4) dissolved in DMSO (100 μg CPI pr. mL DMSO) and mixed by pipetting. Cells were loaded into a NucleoCassette, containing the DNA stain propidium iodide (PI). The cells were investigated using an Olympus IX50 fluorescent microscope, and images were captured using a Lumenera CCD camera and in-house developed software. PI and CPI fluorescence were detected using, respectively, U-MWG2 (green long pass: 510-550 nm) and U-MNUA2 (UV band pass, 330-385 nm) filter cubes (Olympus).

[2] = test system: primary murine splenocytes; assay: NAM/PI staining to determine viability of primary murine splenocytes; type: cell-based, C57BL/6 mouse; conditions: 90% viable, 10 μL NAM (100 μg/mL DMSO) in 90 μL cells
Procedure: The spleen from a C57BL/6 mouse was placed in ice-cold PBS and gently ground using the end of a sterile syringe. The suspension was centrifuged at 300 g for 10 minutes; the pellet was resuspended in 1 mL 0.83% NH4Cl to lyse erythrocytes and incubated for 3 minutes on ice. The cells were then added 14 mL PBS and centrifuged at 300 g for 10 minutes. The splenocytes were resuspended in RPMI (Invitrogen, #61870) supplemented with 10% heat-inactivated fetal bovine serum (Invitrogen, #10108-165), 100 U/mL penicillin and 100 μg/mL streptomycin (Invitrogen, #15140-122). The cell clumps were allowed to sediment and were removed by pipetting, and the resulting single cell suspension was used. 90 μL splenocytes (cell density 1.7×10^6, 90% viable determined using the NC-100 NucleoCounter system following the manufacturer's (ChemoMetec A/S) protocol) were added 10 μL NAM (N-(9-acridinyl)maleimide, Sigma, #01665, CAS no. 49759-20-8) dissolved in DMSO (100 μg NAM pr. mL DMSO) and mixed by pipetting. Cells were loaded into a NucleoCassette, containing the DNA stain propidium iodide (PI). The cells were investigated using an Olympus IX50 fluorescence microscope, and images were captured using a Lumenera CCD camera and in-house developed software. PI and NAM fluorescence were detected using, respectively, U-MWG2 (green long pass: 510-550 nm) and U-MNUA2 (UV band pass, 330-385 nm) filter cubes (Olympus).

[3] = Akasaka et al. 1990; cited from earlier work
[4] = test system: bone marrow cells; assay: NAM/PI staining to determine viability of bone marrow derived cells; type: cell-based, murine; conditions: 93% viable, 10 μL NAM (100 μg/mL DMSO) in 90 μL cells
Procedure: The bone marrow cells were harvested aseptically in the laminar flow hood. Briefly, bilateral tibia and femur were aseptically removed, freed of surrounding soft tissue, and placed in a petri dish with 10 mL 70% ethanol. After 2 minutes they were transferred to ice cold PBS. The bone marrow cavity was then flushed with 5 ml cold PBS using a 5-ml syringe with a 27-gauge needle attached, and the cells were collected from each bone. The cells were centrifuged at 300 g for 10 min, the supernatant was discarded, and cells were washed twice. After the second wash the cell pellet was resuspended in RPMI 1640 (Invitrogen, #61870) supplemented with 10% heat-inactivated fetal bovine serum (Invitrogen, #10108-165), 100 U/mL penicillin and 100 μg/mL streptomycin (Invitrogen, #15140-122). 90 μL bone marrow cells (cell density 1.7×10^6, 93% viable determined using the NC-100 NucleoCounter system following the manufacturer's (ChemoMetec A/S) protocol) were added 10 μL NAM (N-(9-acridinyl)maleimide, Sigma, #01665, CAS no. 49759-20-8) dissolved in DMSO (100 μg NAM pr. mL DMSO) and mixed by pipetting. Cells were loaded into a NucleoCassette, containing the DNA stain propidium iodide (PI). […] PI and NAM fluorescence were detected using, respectively, U-MWG2 (green long pass: 510-550 nm) and U-MNUA2 (UV band pass, 330-385 nm) filter cubes (Olympus).

[5] = test system: Jurkat (JM) cells; assay: NAM/PI staining to determine viability of proliferating Jurkat cells (fluorescence microscopy); type: cell-based; conditions: 99% viable, 10 μL NAM (100 μg/mL DMSO) in 90 μL cells, UV band pass filter
Procedure: as §1, with “1.2×10^6, 99%” for “1.1×10^6, 98%”, “(ChemoMetec A/S)” for “(ChemoMetec)”, “NAM (N-(9-acridinyl)maleimide, Sigma, #01665,” for “CPI (7-diethylamino-3-((4′-(iodoacetyl)amino)phenyl)-4-methylcoumarin, Sigma 78264”, “49759-20-8)” for “76877-34-4)”, “NAM” for “CPI”

[6] = test system: HEK293 cells; assay: NAM/PI staining to determine viability of outgrown HEK293 cells (fluorescence microscopy); type: cell-based, human; conditions: for staining of Triton X-100 treated cells: HEK293 cells treated with 0.25% Triton X-100, then 10 μg/mL NAM, PI from NucleoCassette
Procedure: HEK293 cells were grown at 37° C. in a humidified air atmosphere with 5% CO2 in DMEM (Invitrogen, #31966) supplemented with 10% heat-inactivated fetal bovine serum (Invitrogen, #10108-165). Cells were harvested with 0.5 mL of trypsin (Invitrogen, #25300) and neutralized with 5 mL medium (DMEM+10% FCS) two days after they had reached full confluency. These outgrown HEK293 cells (cell density 1.6×10^6, 78% viable determined using the NC-100 NucleoCounter system following the manufacturer's (ChemoMetec) protocol) were stained with 10 μg/mL NAM (Sigma, #01665). Another cell sample were treated with 0.25% Triton X-100 (Sigma, #T9284) and hereafter added 10 μg/mL NAM. After staining, each cell sample was loaded into a NucleoCassette, containing the DNA stain propidium iodide (PI). The cells were investigated using an Olympus IX50 fluorescent microscope, and images were captured using a Lumenera CCD camera and in-house developed software. PI and NAM fluorescence were detected using, respectively, U-MWG2 (green long pass: 510-550 nm) and U-MNUA2 (UV band pass, 330-385 nm) filter cubes (Olympus).

[7] = test system: Drosophila S2 cells; assay: NAM/PI staining to determine viability of Drosophila S2 cells (fluorescence microscopy); type: cell-based, Drosophila melanogaster; conditions: 99% viable, diluted 10 times in PBS, 10 μg/mL NAM
Procedure: (Drosophila melanogaster Schneider line-2 (S2) cells were originally derived from late embryonic stage Drosophila embryos.) Drosophila S2 cells were grown at 28° C. without shaking in Schneider's Drosophila medium (Invitrogen, #21720) supplemented with 10% heat-inactivated fetal bovine serum (Invitrogen, #10108-165). S2 cells (cell density 1.7×10^7, 99% viable determined using the YC-100 NucleoCounter system with diploid settings following the manufacturer's (ChemoMetec) protocol) were diluted 10 times in PBS and stained with 10 μg/mL NAM (Sigma, #01665). Cells were loaded into a NucleoCassette, containing the DNA stain propidium iodide (PI). The cells were investigated using an Olympus IX50 fluorescent microscope, and images were captured using a Lumenera CCD camera and in-house developed software. PI and NAM fluorescence were detected using, respectively, U-MWG2 (green long pass: 510-550 nm) and U-MNUA2 (UV band pass, 330-385 nm) filter cubes (Olympus).

[8] = Excitation spectra of NAM with -SH reagents (spectrofluorophotometer); type: physicochemical
Procedure: The excitation spectra of NAM, glutathione GSH, GSSG and DTT and combinations thereof were obtained using a spectrofluorophotometer (RF-5301 Fluorescence Spectrophotometer, Shimadzu). 10 μL NAM dissolved in DMSO (100 μg/mL) were added to 3 mL distilled water (resulting concentration of NAM; 0.33 μg/mL) in a quartz cuvette and the excitation spectrum was recorded. Likewise were the spectra of NAM (0.33 μg/mL) together with GSH (167 μg/mL), NAM (0.33 μg/mL) together with GSSG (167 μg/mL), NAM together with DTT (167 μg/mL), GSH (167 μg/mL) alone, GSSG (167 μg/mL) alone and DTT (167 μg/mL) alone recorded.

[9] = test system: S. pombe strain Eg328; assay: NAM and propidium iodide staining of fission yeast; type: cell-based, Schizosaccharomyces pombe
Procedure: S. pombe strain Eg328, h^90 smt-0 ura4-D18, (ATCC 90720; Styrkarsdottir U et al. Curr. Genet. 23: 184-186, 1993) was grown in a rotary shaker at 29° C. to a density of 1×10^7 cells/ml in EMM minimal medium (Moreno et al., Methods Enzym. 194: 795-823, 1991) supplemented with 10 mM of L-uridine (Sigma, U3750). Cells were collected by centrifuging, washed with sterile water and stained with 10 μg/ml NAM (N-(9-acridinyl)-maleimide, Sigma, #01665) and 10 μg/ml propidium iodide (Applichem, #A2261.9010) prior to mounting on a microscope slide. Olympus IX50 was used for microscopy, and images were captured using a Lumenera CCD camera and in-house developed software. Propidium iodide and NAM fluorescence were detected using, respectively, U-MWG2 and U-MNUA2 filter cubes (Olympus).

[10] = test system: U2OS cells; assay: Intracellular localization of fluorescent NAM in GFP / H2B-GFP expressing cells; type: cell-based; conditions: 10 μg/ml NAM
Excerpt: (§2) MCF-7 (ATTC HTB-22) and U2OS (ATTC HTB-96) cells were cultivated in RPMI (Invitrogen, #61870)+10% FCS (Invitrogen, #10108-165). Cells were transfected with, respectively, pEGFP-C1 (Clontech) and pBOS-H2B-GFP (Pharmingen, BD Biosciences) using Lipofectamine 2000 (Invitrogen, #11668-027) according to manufacturer's instructions. Stable cells lines expressing GFP (green fluorescent protein) or H2B-GFP (GFP N-terminally fused to histone H2B) were cultivated in, respectively, T25 flasks and in chamber slides (Nunc) to 75% confluency. Cells from T25 flasks were harvested with 0.5 ml of trypsin (Invitrogen, #25300), neutralized with 5 ml of medium (RPMI+10% FCS), stained with 10 μg/ml NAM (N-(9-acridinyl), maleimide, Sigma, #01665) prior to mounting on a microscope slide. Cells grown on chamber slides were directly stained with 10 μg/ml NAM (N-(9-acridinyl)-maleimide). Olympus IX50 was used for microscopy, and images were captured using a Lumenera CCD camera and in-house developed software. GFP and NAM fluorescence were detected using, respectively, U-MNIB3 and U-MNUA2 filter cubes (Olympus).
(§3) Cells expression GFP or H2B-GFP were used for determining the intracellular localization of fluorescent NAM.

[11] = test system: MCF-7 cells; assay: as above; type: cell-based; conditions: 10 μg/ml NAM
Excerpt: as §2, §3

| Structure (SMILES) | staining of cells by CPI versus PI [1] | staining of cells by NAM versus PI [2] | fluorescence of NAM upon reaction with sulfite [3] | staining of cells by NAM versus PI [4] | staining of cells by NAM versus PI [5] | staining of Triton X-100 treated cells [6] | staining of cells by NAM versus PI ([6]; outgrown HEK293 cells, 78% viable, 10 μg/mL NAM) | staining of cells by NAM versus PI [7] | fluorescence of NAM alone ([8]; NAM 0.33 μg/mL in distilled water, no thiol) | fluorescence on mixing NAM with GSH ([8]; NAM 0.33 μg/mL, GSH 167 μg/mL) | fluorescence on mixing NAM with DTT ([8]; NAM with DTT 167 μg/mL) | intracellular localization of NAM in yeast cells ([9]; 10 μg/ml NAM) | staining of living and dead yeast cells by NAM ([9]; 10 μg/ml NAM and 10 μg/ml propidium iodide) | intracellular localization of fluorescent NAM ([10]; GFP-expressing cell lines) | intracellular localization of fluorescent NAM ([10]; H2B-GFP-expressing cells) | intracellular localization of fluorescent NAM ([11]; GFP-expressing cell lines) | intracellular localization of fluorescent NAM ([11]; H2B-GFP-expressing cells) |
| --- | --- | --- | --- | --- | --- | --- | --- | --- | --- | --- | --- | --- | --- | --- | --- | --- | --- |
| CCN(CC)c1ccc2c(C)c(-c3ccc(NC(=O)CI)cc3)c(=O)oc2c1 [CPI, 7-diethylamino-3-((4′-(iodoacetyl)amino)phenyl)-4-methylcoumarin] | nearly all cells were stained by CPI |  |  |  |  |  |  |  |  |  |  |  |  |  |  |  |  |
| O=C1C=CC(=O)N1c1c2ccccc2nc2ccccc12 [NAM, N-(9-acridinyl)maleimide] |  | nearly all the primary spleen cells were stained by NAM; only exception were PI positive cells | fluoresces strongly | nearly all the primary bone marrow cells were stained by NAM; again only exception were PI positive cells | nearly all cells in the proliferating Jurkat cell culture were stained by NAM; only exception were PI positive cells | NAM negative | NAM and PI were found to complementary stain the outgrown HEK293 cells | NAM and PI were found to complementary stain S2 cells | only exhibited very weak fluorescence | strong synergistic effect with respect to fluorescence | strong synergistic effect with respect to fluorescence | localizes to both the nucleus and cytosol | NAM stains both living and dead yeast cells | found in both the nucleus and cytosol | found outside as well as inside the nucleus | found in both the nucleus and cytosol | found outside as well as inside the nucleus |
| CC[N+](C)(CC)CCC[n+]1c(-c2ccccc2)c2cc(N)ccc2c2ccc(N)cc21.[I-].[I-] [PI, propidium iodide] |  |  |  |  |  | PI positive |  |  |  |  |  |  |  |  |  |  |  |
